Results reported in ChEMBL document CHEMBL4321793, “Can Cysteine Protease Cross-Class Inhibitors Achieve Selectivity?” (J Med Chem, 2019).

Columns and labels:
Procathepsin L [1] = biological target: T1, Procathepsin L (Homo sapiens, UniProt P07711); test: Inhibition of human cathepsin L
Rhodesain = Rhodesain (Trypanosoma brucei rhodesiense, UniProt Q95PM0); test: Inhibition of Trypanosoma brucei rhodesiense rhodesain
Procathepsin L [2] = biological target: T1, Procathepsin L; test: Reversible inhibition of human cathepsin L
[3] = system: human cathepsin L versus Trypanosoma cruzi cruzipain; test: Selectivity ratio of IC50 for reversible inhibition of human cathepsin L to IC50 for reversible inhibition of Trypanosoma cruzi cruzipain; assay type: toxicity; details: read-out: Ratio IC50
Cathepsin B = Cathepsin B (Homo sapiens, UniProt P07858); test: Reversible inhibition of human cathepsin B
[4] = system: human cathepsin B versus Trypanosoma cruzi cruzipain; test: Selectivity ratio of IC50 for reversible inhibition of human cathepsin B to IC50 for reversible inhibition of Trypanosoma cruzi cruzipain; assay type: toxicity; details: read-out: Ratio IC50
Cruzipain = Cruzipain (Trypanosoma cruzi, UniProt P25779); test: Reversible inhibition of Trypanosoma cruzi cruzipain
Chain of Cruzipain (P25779 whole entry): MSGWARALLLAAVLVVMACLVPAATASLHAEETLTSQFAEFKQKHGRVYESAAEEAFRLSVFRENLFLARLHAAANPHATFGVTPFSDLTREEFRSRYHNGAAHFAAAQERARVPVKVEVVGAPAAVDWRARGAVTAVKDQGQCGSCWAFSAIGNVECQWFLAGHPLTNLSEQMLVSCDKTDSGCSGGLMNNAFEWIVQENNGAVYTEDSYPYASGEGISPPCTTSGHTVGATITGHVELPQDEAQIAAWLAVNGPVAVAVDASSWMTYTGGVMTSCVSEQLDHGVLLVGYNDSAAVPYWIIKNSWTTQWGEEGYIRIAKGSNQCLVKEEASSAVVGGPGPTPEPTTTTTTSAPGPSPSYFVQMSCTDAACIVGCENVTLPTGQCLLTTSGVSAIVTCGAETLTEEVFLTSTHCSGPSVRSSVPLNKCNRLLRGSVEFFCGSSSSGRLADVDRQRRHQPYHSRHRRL

T1 sequence (P07711 whole entry): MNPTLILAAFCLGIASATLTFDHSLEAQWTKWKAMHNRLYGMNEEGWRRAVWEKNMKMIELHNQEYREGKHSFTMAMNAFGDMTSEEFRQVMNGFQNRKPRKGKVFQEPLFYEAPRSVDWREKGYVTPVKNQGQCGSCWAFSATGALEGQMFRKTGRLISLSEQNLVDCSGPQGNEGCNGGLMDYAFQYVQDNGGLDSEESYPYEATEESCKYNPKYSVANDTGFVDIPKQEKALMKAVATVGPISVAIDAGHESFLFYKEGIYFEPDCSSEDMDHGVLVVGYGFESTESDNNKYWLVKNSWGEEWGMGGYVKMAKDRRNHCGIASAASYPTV
Chain of Rhodesain (Q95PM0 whole entry): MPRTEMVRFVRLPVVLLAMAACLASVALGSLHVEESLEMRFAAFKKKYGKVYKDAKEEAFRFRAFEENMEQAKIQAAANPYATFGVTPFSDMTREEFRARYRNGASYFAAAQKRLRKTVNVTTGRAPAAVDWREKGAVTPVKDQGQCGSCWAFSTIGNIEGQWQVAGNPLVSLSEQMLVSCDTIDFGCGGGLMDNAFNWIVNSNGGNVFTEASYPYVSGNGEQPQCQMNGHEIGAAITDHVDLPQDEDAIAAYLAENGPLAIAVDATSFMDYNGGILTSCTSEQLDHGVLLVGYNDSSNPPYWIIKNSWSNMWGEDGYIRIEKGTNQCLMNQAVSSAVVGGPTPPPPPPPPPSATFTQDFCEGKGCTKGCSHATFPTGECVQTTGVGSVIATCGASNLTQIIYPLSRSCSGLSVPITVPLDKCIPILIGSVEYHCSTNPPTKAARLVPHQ

Compound | Ki (Procathepsin L [1]) | Ki (Rhodesain) | IC50 (Procathepsin L [2]) | selectivity ratio [3] | IC50 (Cathepsin B) | selectivity ratio [4] | IC50 (Cruzipain)
N#Cc1nc(N2CCOCC2)nc(N(Cc2ccc3c(c2)OCO3)C2CCCCC2)n1 | 33 nM | – | – | – | – | – | –
CCC[C@H]1CC[C@H](N(Cc2ccc3c(c2)OCO3)c2nc(C#N)nc(N3CCOCC3)n2)CC1 | 690 nM | 2 nM | – | – | – | – | –
CC(C)(F)C[C@H](N[C@@H](c1ccc(-c2ccc(N3CCNCC3)cc2)cc1)C(F)(F)F)C(=O)NCC#N | – | – | 47 nM | 58 | 1110 nM | 1390 | 0.8 nM
